From PubChem BioAssay (NCI)
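At the GI50, growth is halved. The concentration for full growth arrest is given as TGI.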

How the values were obtained:
Experiment in all cases: growth of human tumour cells (NCI), 384-well format
SK-MEL-28 melanoma = test system: SK-MEL-28 melanoma
UACC-257 melanoma = test system: UACC-257 melanoma
K-562 leukemia = test system: K-562 leukemia
NCI/ADR-RES ovarian = test system: NCI/ADR-RES ovarian
SK-MEL-2 melanoma = test system: SK-MEL-2 melanoma
HL-60(TB) leukemia = test system: HL-60(TB) leukemia
OVCAR-5 ovarian = test system: OVCAR-5 ovarian
KM12 colon = test system: KM12 colon
M14 melanoma = test system: M14 melanoma
HCT-116 colon = test system: HCT-116 colon
SW-620 colon = test system: SW-620 colon
PC-3 prostate = test system: PC-3 prostate
HS 578T breast = test system: HS 578T breast
CCRF-CEM leukemia = test system: CCRF-CEM leukemia
NCI-H23 lung = test system: NCI-H23 lung
A549 NSCLC = test system: A549 NSCLC
OVCAR-4 ovarian = test system: OVCAR-4 ovarian
786-0 renal = test system: 786-0 renal
RPMI-8226 leukemia = test system: RPMI-8226 leukemia
NCI-H460 NSCLC = test system: NCI-H460 NSCLC
NCI-H226 lung = test system: NCI-H226 lung
SF-268 CNS = test system: SF-268 CNS
EKVX NSCLC = test system: EKVX NSCLC
UO-31 renal = test system: UO-31 renal
A498 renal = test system: A498 renal
SNB-19 CNS = test system: SNB-19 CNS
MALME-3M melanoma = test system: MALME-3M melanoma
UACC-62 melanoma = test system: UACC-62 melanoma
MDA-MB-468 breast = test system: MDA-MB-468 breast
HCT-15 colon = test system: HCT-15 colon
HCC-2998 colon = test system: HCC-2998 colon
MOLT-4 leukemia = test system: MOLT-4 leukemia
MCF7 breast = test system: MCF7 breast
MDA-MB-435 melanoma = test system: MDA-MB-435 melanoma
LOX IMVI melanoma = test system: LOX IMVI melanoma
HT29 colon = test system: HT29 colon
U251 glioblastoma = test system: U251 glioblastoma
HOP-62 NSCLC = test system: HOP-62 NSCLC
NCI-H522 lung = test system: NCI-H522 lung
COLO 205 colon = test system: COLO 205 colon
SF-539 CNS = test system: SF-539 CNS
SNB-75 CNS = test system: SNB-75 CNS
NCI-H322M lung = test system: NCI-H322M lung
SF-295 CNS = test system: SF-295 CNS
CAKI-1 renal = test system: CAKI-1 renal
SR leukemia = test system: SR leukemia
TK-10 renal = test system: TK-10 renal
RXF 393 renal = test system: RXF 393 renal
OVCAR-8 ovarian = test system: OVCAR-8 ovarian
SN12C renal = test system: SN12C renal
OVCAR-3 ovarian = test system: OVCAR-3 ovarian
BT-549 breast = test system: BT-549 breast
SK-OV-3 ovarian = test system: SK-OV-3 ovarian
HOP-92 NSCLC = test system: HOP-92 NSCLC
MDA-MB-231 breast = test system: MDA-MB-231 breast
SK-MEL-5 melanoma = test system: SK-MEL-5 melanoma
ACHN renal = test system: ACHN renal
IGROV1 ovarian = test system: IGROV1 ovarian

C=CC(=O)Nc1cccc(C)c1Nc1ncc2cc(-c3c(Cl)c(OC)cc(OC)c3Cl)ccc2n1
GI50 (SK-MEL-28 melanoma): 2590 nM
TGI (SK-MEL-28 melanoma): 8300 nM
GI50 (UACC-257 melanoma): 1180 nM
TGI (UACC-257 melanoma): 3350 nM
GI50 (K-562 leukemia): 1390 nM
TGI (K-562 leukemia): 3210 nM
GI50 (NCI/ADR-RES ovarian): 2030 nM
TGI (NCI/ADR-RES ovarian): 4950 nM
GI50 (SK-MEL-2 melanoma): 894 nM
TGI (SK-MEL-2 melanoma): 2200 nM
GI50 (HL-60(TB) leukemia): 1100 nM
TGI (HL-60(TB) leukemia): 2380 nM
GI50 (OVCAR-5 ovarian): 4440 nM
TGI (OVCAR-5 ovarian): > 100000 nM
GI50 (KM12 colon): 1930 nM
TGI (KM12 colon): 5200 nM
GI50 (M14 melanoma): 3570 nM
TGI (M14 melanoma): 12900 nM
GI50 (HCT-116 colon): 1730 nM
TGI (HCT-116 colon): 3890 nM
GI50 (SW-620 colon): 2050 nM
TGI (SW-620 colon): 6310 nM
GI50 (PC-3 prostate): 1010 nM
TGI (PC-3 prostate): 2600 nM
GI50 (HS 578T breast): 1260 nM
TGI (HS 578T breast): 3180 nM
GI50 (CCRF-CEM leukemia): 1340 nM
TGI (CCRF-CEM leukemia): 2650 nM
GI50 (NCI-H23 lung): 1840 nM
TGI (NCI-H23 lung): 5120 nM
GI50 (A549 NSCLC): 2120 nM
TGI (A549 NSCLC): 7940 nM
GI50 (OVCAR-4 ovarian): 2780 nM
TGI (OVCAR-4 ovarian): 14300 nM
GI50 ([…]-0 renal): 1290 nM
TGI (786-0 renal): 5330 nM
GI50 (RPMI-8226 leukemia): 276 nM
TGI (RPMI-8226 leukemia): 1260 nM
GI50 (NCI-H460 NSCLC): 717 nM
TGI (NCI-H460 NSCLC): 2090 nM
GI50 (NCI-H226 lung): 1110 nM
TGI (NCI-H226 lung): 6080 nM
GI50 (SF-268 CNS): 1550 nM
TGI (SF-268 CNS): 3810 nM
GI50 (EKVX NSCLC): 1840 nM
TGI (EKVX NSCLC): 4550 nM
GI50 (UO-31 renal): 2230 nM
TGI (UO-31 renal): 6740 nM
GI50 (A498 renal): 614 nM
TGI (A498 renal): 2030 nM
GI50 (SNB-19 CNS): 2000 nM
TGI (SNB-19 CNS): 7720 nM
GI50 (MALME-3M melanoma): 2530 nM
TGI (MALME-3M melanoma): 9940 nM
GI50 (UACC-62 melanoma): 1750 nM
TGI (UACC-62 melanoma): 4900 nM
GI50 (MDA-MB-468 breast): 207 nM
TGI (MDA-MB-468 breast): 1600 nM
GI50 (HCT-15 colon): 1940 nM
TGI (HCT-15 colon): 4930 nM
GI50 (HCC-2998 colon): 2000 nM
TGI (HCC-2998 colon): 4830 nM
GI50 (MOLT-4 leukemia): 736 nM
TGI (MOLT-4 leukemia): 2130 nM
GI50 (MCF7 breast): 1370 nM
TGI (MCF7 breast): > 100000 nM
GI50 (MDA-MB-435 melanoma): 2170 nM
TGI (MDA-MB-435 melanoma): 5350 nM
GI50 (LOX IMVI melanoma): 1380 nM
TGI (LOX IMVI melanoma): 2740 nM
GI50 (HT29 colon): 2440 nM
TGI (HT29 colon): 9750 nM
GI50 (U251 glioblastoma): 1520 nM
TGI (U251 glioblastoma): 3740 nM
GI50 (HOP-62 NSCLC): 775 nM
TGI (HOP-62 NSCLC): 2340 nM
GI50 (NCI-H522 lung): 1300 nM
TGI (NCI-H522 lung): 3010 nM
GI50 (COLO 205 colon): 2010 nM
TGI (COLO 205 colon): 12200 nM
GI50 (SF-539 CNS): 615 nM
TGI (SF-539 CNS): 1930 nM
GI50 (SNB-75 CNS): 1120 nM
TGI (SNB-75 CNS): 3800 nM
GI50 (NCI-H322M lung): 2630 nM
TGI (NCI-H322M lung): 9020 nM
GI50 (SF-295 CNS): 2770 nM
TGI (SF-295 CNS): 10500 nM
GI50 (CAKI-1 renal): 2060 nM
TGI (CAKI-1 renal): 13600 nM
GI50 (SR leukemia): 348 nM
TGI (SR leukemia): 1540 nM
GI50 (TK-10 renal): 1980 nM
TGI (TK-10 renal): 5920 nM
GI50 (RXF 393 renal): 573 nM
TGI (RXF 393 renal): 1970 nM
GI50 (OVCAR-8 ovarian): 1480 nM
TGI (OVCAR-8 ovarian): 3000 nM
GI50 (SN12C renal): 2330 nM
TGI (SN12C renal): 7560 nM
GI50 (OVCAR-3 ovarian): 1100 nM
TGI (OVCAR-3 ovarian): 2940 nM
GI50 (BT-549 breast): 843 nM
TGI (BT-549 breast): 2440 nM
GI50 (SK-OV-3 ovarian): 1690 nM
TGI (SK-OV-3 ovarian): 17000 nM
GI50 (HOP-92 NSCLC): 2250 nM
TGI (HOP-92 NSCLC): 6440 nM
GI50 (MDA-MB-231 breast): 1890 nM
TGI (MDA-MB-231 breast): 5640 nM
GI50 (SK-MEL-5 melanoma): 1460 nM
TGI (SK-MEL-5 melanoma): 3380 nM
GI50 (ACHN renal): 2930 nM
TGI (ACHN renal): 23700 nM
GI50 (IGROV1 ovarian): 2760 nM
TGI (IGROV1 ovarian): 7890 nM
